Measurements published in patent publication US20150335637A1, “COMPOSITIONS AND METHODS FOR TREATING CUTANEOUS T CELL LYMPHOMA” (THE TRUSTEES OF THE UNIVERSITY OF PENNSYLVANIA, priority 2013, published 2015).

Tested on: cutaneous T-cell lymphoma (CTCL) lesions
Assay: Phase I open label trial of resiquimod gel, clinical response of skin lesions
Format: in vivo, human
Procedure: The final trial design calls for a total of 16-20 patients, with the first half cohort treated topically with 0.06% gel and the second half cohort treated topically with 0.03% gel.
According to the study design, treatment of only four to five target lesions is permitted for eight weeks; followed by four weeks of rest and another eight weeks of therapy. Final evaluation is conducted after four weeks off of therapy.

Compound: CCOCc1nc2c(N)nc3ccccc3c2n1CC(C)(C)O [resiquimod, 4-amino-α,α-dimethyl-2-ethoxymethyl-1H-imidazo[4,5-c]quinolin-1-ethanol]
- skin lesions of one patient (FIG. 1) (patient refractory to previous treatments, before application vs end of week 8): clears the treated lesions and induces resolution of distant lesions
- clinical response rates for treated and untreated lesions (refractory early stage CTCL patients): high clinical response rates of both treated as well as distant, non-treated lesions
